Data: US20120270929A1, “MODULATION OF TTC39 EXPRESSION TO INCREASE HDL” (ISIS Pharmaceuticals, Inc., priority 2009, published 2012)
Oligonucleotides are written 5' to 3', each unit as a sugar letter and its base; * is a phosphorothioate linkage, no mark a phosphodiester; rarer units and linkages stand in square brackets, end groups in braces. Plain capitals give the bases only. e = 2'-O-(2-methoxyethyl) (MOE); [5mC] = 5-methylcytosine; d = 2'-deoxy (DNA)

Assays:
Format in all cases: in vivo, mouse
[1] = test system: APOA1 plasma protein; assay: APOA1 plasma protein levels in C57BL/6 mice; parameters: APOA1 plasma protein levels: unit not given here
Protocol: (§1) Four groups of five mice each were injected twice a week with 25 mg/kg (totaling 50 mg/kg/week) of ISIS 447114, ISIS 447118, ISIS 447143, or ISIS 447144 for 6 weeks. A control group of five mice was injected with phosphate buffered saline (PBS) twice a week for 6 weeks. Plasma samples were obtained before the start of treatment, at week 3 and at week 6. At the end of the treatment period, mice were fasted for 4 hours before being euthanized. Plasma and tissue samples were obtained for further analysis.

[2] = test system: PCSK9 mRNA; assay: PCSK9 mRNA levels in C57BL/6 mice; conditions: 50 mg/kg/week, 6 weeks, compared to PBS control
Protocol: as §1
(§2) The effect of inhibition of TTC39B in mice on cholesterol homeostasis was studied. PCSK9 mRNA levels were measured using the murine primer probe set mPCSK9 (forward sequence ACCGACTTCAACAGCGTGC, designated herein as SEQ ID NO: 106; reverse sequence GGCTGTCACACTTGCTCGC, designated herein as SEQ ID NO: 107, probe sequence AGGATGGGACACGCTTCCACAGACAX, wherein X is a fluorophore, designated herein as SEQ ID NO: 108). LDLR mRNA levels were measured using the murine primer probe set mLDLR (forward sequence GACCGCAGCGAGTACACCA, designated herein as SEQ ID NO: 109; reverse sequence TCACCTCCGTGTCGAGAGC, designated herein as SEQ ID NO: 110, probe sequence […], designated herein as SEQ ID NO: 111). The results are presented as percentage inhibition compared to the PBS control.

[3] = Plasma cholesterol and triglycerides in C57BL/6 mice (Olympus AU400e)
Protocol: as §1
To investigate the effect of inhibition of TTC39B on triglycerides and cholesterol levels in the plasma, samples were collected on weeks 0, 3, and 6, and total plasma cholesterol, LDL cholesterol, HDL cholesterol, and triglycerides were analyzed on an Olympus AU400e Analyzer.

[4] = Body and organ weights in C57BL/6 mice
Protocol: as §1
Body weights of all the mice were measured weekly till the end of the treatment period. Organ weights were taken at the end of the treatment period when the mice were euthanized.

[5] = Plasma glucose in C57BL/6 mice (glucose oxidase assay)
Protocol: as §1
Plasma glucose values were determined using a Beckman Glucose Analyzer II (Beckman Coulter) by a glucose oxidase assay. As presented in Table 14, there was no significant change in glucose levels after treatment with ISIS oligonucleotides.

[6] = test system: LDLR mRNA; assay: LDLR mRNA levels in C57BL/6 mice; conditions: 50 mg/kg/week, 6 weeks, compared to PBS control
Protocol: as §1, §2

[7] = test system: apoA1 mRNA; assay: apoA1 mRNA levels in C57BL/6 mice after TTC39B inhibition; conditions: 50 mg/kg/week, 6 weeks
Protocol: as §1
(§3) The effect of inhibition of TTC39B in mice on these proteins of reverse cholesterol transport was studied. RNA levels of ABCA1 were measured using murine primer probe set RTS1204 (forward sequence […], designated herein as SEQ ID NO: 97; reverse sequence […], designated herein as SEQ ID NO: 98; and probe sequence […], designated herein as SEQ ID NO: 99). RNA levels of apoA1 were measured using murine primer probe set RTS14737 (forward sequence […], designated herein as SEQ ID NO: 100; reverse sequence […], designated herein as SEQ ID NO: 101; and probe sequence […], designated herein as SEQ ID NO: 102). RNA levels of SRB1 were measured using murine primer probe set mSRB-1 (forward sequence […], designated herein as SEQ ID NO: 103; reverse sequence ATGCGACTTGTCAGGCTGG, designated herein as SEQ ID NO: 104; and probe sequence […], designated herein as SEQ ID NO: 105).

[8] = test system: ABCA1 mRNA; assay: ABCA1 mRNA levels in C57BL/6 mice after TTC39B inhibition; conditions: 50 mg/kg/week, 6 weeks
Protocol: as §1, §3

[9] = Plasma NEFA and 3-HB in C57BL/6 mice; parameters: 3-HB levels: unit not given here
Protocol: as §1
Effect of antisense inhibition of TTC39B on free fatty acid levels Plasma levels of non-esterified fatty acids (NEFA) and 3-hydroxybutyric acid (3-HB), which are the end-products of fatty acid oxidation, were measured using an automated clinical chemistry analyzer (Olympus Clinical Analyzer).

[10] = Liver function: plasma transaminases (ALT, AST) in C57BL/6 mice
Protocol: as §1
To evaluate the impact of ISIS oligonucleotides on the hepatic function of the mice described above, plasma concentrations of transaminases were measured using an automated clinical chemistry analyzer (Olympus Clinical Analyzer). Measurements of alanine transaminase (ALT) and aspartate transaminase (AST) are expressed in IU/L. The results are presented in Tables 19 and 20 and indicate that the oligonucleotides were well tolerated.

[11] = test system: SRB1 mRNA; assay: SRB1 mRNA levels in C57BL/6 mice after TTC39B inhibition; conditions: 50 mg/kg/week, 6 weeks
Protocol: as §1, §3

[12] = Week 0 (before treatment), 50 mg/kg/week

Sequence: TATTTCTATAGCTCATGACA (antisense eT*eA*eT*eT*eT*d[5mC]*dT*dA*dT*dA*dG*d[5mC]*dT*d[5mC]*dA*eT*eG*eA*e[5mC]*eA) [ISIS 447144]
- APOA1 plasma protein % change over the baseline ([1]; 50 mg/kg/week, 6 weeks): +108%
- APOA1 plasma protein levels [1, 12]: +10
- APOA1 plasma protein levels ([1]; Week 3, 50 mg/kg/week): +14
- APOA1 plasma protein levels ([1]; Week 6, 50 mg/kg/week): +20
- Percent inhibition PCSK9 mRNA levels [2]: 19%
- total cholesterol % increase over baseline ([3]; 50 mg/kg/week, 6 weeks, baseline average of 72 mg/dL): +37%
- HDL cholesterol levels [3, 12]: 46 mg/dL
- LDL cholesterol levels [3, 12]: 14 mg/dL
- total cholesterol levels [3, 12]: 75 mg/dL
- triglyceride levels [3, 12]: 78 mg/dL
- HDL cholesterol levels ([3]; Week 3, 50 mg/kg/week): 53 mg/dL
- HDL cholesterol levels (% change over baseline) ([3]; Week 3, 50 mg/kg/week): +14%
- LDL cholesterol levels ([3]; Week 3, 50 mg/kg/week): 14 mg/dL
- total cholesterol levels ([3]; Week 3, 50 mg/kg/week): 81 mg/dL
- triglyceride levels ([3]; Week 3, 50 mg/kg/week): 70 mg/dL
- HDL cholesterol levels ([3]; Week 6, 50 mg/kg/week): 90 mg/dL
- HDL cholesterol levels (% change over baseline) ([3]; Week 6, 50 mg/kg/week): +88%
- LDL cholesterol levels ([3]; Week 6, 50 mg/kg/week): 18 mg/dL
- total cholesterol levels ([3]; Week 6, 50 mg/kg/week): 107 mg/dL
- triglyceride levels ([3]; Week 6, 50 mg/kg/week): 91 mg/dL
- Kidney weight after treatment ([4]; 50 mg/kg/week, 6 weeks): 0.34 g
- Liver weight after treatment ([4]; 50 mg/kg/week, 6 weeks): 1.3 g
- Spleen weight after treatment ([4]; 50 mg/kg/week, 6 weeks): 0.08 g
- body weight ([4]; Week 3, 50 mg/kg/week): 26 g
- body weight ([4]; Week 6, 50 mg/kg/week): 28 g
- body weight ([4]; week 1, 50 mg/kg/week): 25 g
- body weight ([4]; week 2, 50 mg/kg/week): 26 g
- body weight ([4]; week 4, 50 mg/kg/week): 27 g
- body weight ([4]; week 5, 50 mg/kg/week): 27 g
- glucose levels [5, 12]: 222 mg/dL
- glucose levels ([5]; Week 3, 50 mg/kg/week): 239 mg/dL
- glucose levels ([5]; Week 6, 50 mg/kg/week): 235 mg/dL
- Percent inhibition LDLR mRNA levels [6]: 2%
- apoA1 mRNA levels (effect of TTC39B inhibition) ([7]; 50 mg/kg): average increase
- apoA1 mRNA levels (effect of TTC39B inhibition) ([7]; listed as 447144, 50 mg/kg): +50
- abcA1 mRNA levels (effect of TTC39B inhibition) [8]: 0
- 3-HB % change over the baseline ([9]; 50 mg/kg/week, 6 weeks): +152%
- NEFA % change over the baseline ([9]; 50 mg/kg/week, 6 weeks): +101%
- 3-HB levels [9, 12]: 124
- NEFA levels [9, 12]: 0.57 mEq/L
- 3-HB levels ([9]; Week 3, 50 mg/kg/week): 122
- NEFA levels ([9]; Week 3, 50 mg/kg/week): 0.63 mEq/L
- 3-HB levels ([9]; Week 6, 50 mg/kg/week): 398
- NEFA levels ([9]; Week 6, 50 mg/kg/week): 1.25 mEq/L
- ALT levels [10, 12]: 28 IU/L
- AST levels [10, 12]: 67 IU/L
- ALT levels ([10]; Week 3, 50 mg/kg/week): 21 IU/L
- AST levels ([10]; Week 3, 50 mg/kg/week): 31 IU/L
- ALT levels ([10]; Week 6, 50 mg/kg/week): 69 IU/L
- AST levels ([10]; Week 6, 50 mg/kg/week): 113 IU/L
- srb1 mRNA levels (effect of TTC39B inhibition) [11]: 0
